Read-outs that look alike come from different tables or passages of the source.
How the values were obtained:
[1] = target: KIF18A (Homo sapiens (Human), UniProt Q8NI77); assay: KIF18A ATPase activity under tubulin stimulation (ADP-Glo assay); assay type: biochemical; details: KIF18A 30 nM, ATP 150 μM, pig microtubules
[2] = tested on: OVCAR-3 cells; assay: OVCAR-3 cell proliferation (Cell Titer-Glo, 10 days); assay type: cell-based, human
Procedure: The inhibitory effect on the KIF18A target by the compounds of the present disclosure was evaluated by testing the inhibitory effect on proliferation of OVCAR-3 cells by the compounds of the present disclosure.
The following method was used to determine the effect of the compounds of the present disclosure on the proliferation of human ovarian cancer cells Ovcar-3 (HTB-161, ATCC). Cells were cultured in RPMI-1640 complete medium containing 20% fetal bovine serum, 0.01 mg/mL bovine insulin, 100 U penicillin, and 100 μg/mL streptomycin. The Promega kit Cell Titer-Glo (Cat. No. G7572) was used in this method for test.
For specific steps, reference was made to the kit instructions, and the procedure was outlined below: Test compounds were dissolved in DMSO to prepare a 10 mM stock solution, which was diluted at the predetermined test concentrations, and the test compounds at different concentrations were added to a 384-well cell test plate using ECHO. In the plate pre-added with the test compounds, 400 OVCAR-3 cells in the logarithmic growth phase were seeded per well, ensuring the final concentration of the test compounds in the reaction system ranged between 0.12 nM and 10 μM. The co-culture was maintained in a cell culture incubator for 10 days. Before testing, the cell culture plate was equilibrated for 10 minutes at room temperature, 25 μL of Cell Titer-Glo was added to each well, and the mixture was shaken and mixed well and let stand for 5 minutes. The luminescence values for samples in various wells were read using a microplate reader in Luminescence mode.
The percentage of inhibition of cell proliferation by the test compound at each concentration was calculated by comparing with the values of the control group (0.1% DMSO). The IC50 values of the compounds were obtained by concentration-inhibition rate nonlinear regression analysis of the test compounds using GraphPad Prism 9.

KIF18A, sequence (Q8NI77 whole entry): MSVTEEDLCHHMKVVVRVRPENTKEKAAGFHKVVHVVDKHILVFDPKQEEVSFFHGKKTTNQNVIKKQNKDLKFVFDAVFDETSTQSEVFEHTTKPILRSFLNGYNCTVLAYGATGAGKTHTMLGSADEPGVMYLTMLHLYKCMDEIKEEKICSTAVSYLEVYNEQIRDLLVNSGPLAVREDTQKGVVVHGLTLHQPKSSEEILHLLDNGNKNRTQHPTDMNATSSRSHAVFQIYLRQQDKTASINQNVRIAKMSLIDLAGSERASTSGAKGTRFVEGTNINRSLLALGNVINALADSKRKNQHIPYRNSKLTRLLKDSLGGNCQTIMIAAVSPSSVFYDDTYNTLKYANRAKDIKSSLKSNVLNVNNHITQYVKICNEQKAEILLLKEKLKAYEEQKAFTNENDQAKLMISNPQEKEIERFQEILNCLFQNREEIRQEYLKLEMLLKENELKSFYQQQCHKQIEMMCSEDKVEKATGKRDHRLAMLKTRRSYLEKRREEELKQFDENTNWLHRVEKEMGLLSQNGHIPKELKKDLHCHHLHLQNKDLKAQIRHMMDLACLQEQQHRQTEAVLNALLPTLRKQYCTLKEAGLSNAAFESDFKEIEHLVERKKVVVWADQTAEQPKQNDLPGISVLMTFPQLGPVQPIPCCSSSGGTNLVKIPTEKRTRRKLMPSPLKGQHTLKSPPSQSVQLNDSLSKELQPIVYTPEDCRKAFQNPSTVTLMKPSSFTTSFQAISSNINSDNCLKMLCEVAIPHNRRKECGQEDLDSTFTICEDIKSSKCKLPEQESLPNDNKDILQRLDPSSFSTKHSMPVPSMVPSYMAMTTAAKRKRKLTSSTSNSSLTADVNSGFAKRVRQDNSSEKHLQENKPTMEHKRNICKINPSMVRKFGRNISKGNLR
KIF18A, sequence (P02550 whole entry partner): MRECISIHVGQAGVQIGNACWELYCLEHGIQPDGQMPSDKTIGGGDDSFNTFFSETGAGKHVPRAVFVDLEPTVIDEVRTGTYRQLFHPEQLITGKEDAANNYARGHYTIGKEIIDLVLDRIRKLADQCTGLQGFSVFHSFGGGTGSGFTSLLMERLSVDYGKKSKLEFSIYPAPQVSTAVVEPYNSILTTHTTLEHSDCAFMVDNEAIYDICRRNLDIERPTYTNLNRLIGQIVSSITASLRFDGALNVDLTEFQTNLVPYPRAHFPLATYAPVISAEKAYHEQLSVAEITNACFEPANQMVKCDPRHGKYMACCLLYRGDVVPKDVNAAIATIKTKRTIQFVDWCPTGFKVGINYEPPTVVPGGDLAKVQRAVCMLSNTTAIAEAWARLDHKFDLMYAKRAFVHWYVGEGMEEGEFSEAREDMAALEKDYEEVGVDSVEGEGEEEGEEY
KIF18A, sequence (P02554 whole entry partner): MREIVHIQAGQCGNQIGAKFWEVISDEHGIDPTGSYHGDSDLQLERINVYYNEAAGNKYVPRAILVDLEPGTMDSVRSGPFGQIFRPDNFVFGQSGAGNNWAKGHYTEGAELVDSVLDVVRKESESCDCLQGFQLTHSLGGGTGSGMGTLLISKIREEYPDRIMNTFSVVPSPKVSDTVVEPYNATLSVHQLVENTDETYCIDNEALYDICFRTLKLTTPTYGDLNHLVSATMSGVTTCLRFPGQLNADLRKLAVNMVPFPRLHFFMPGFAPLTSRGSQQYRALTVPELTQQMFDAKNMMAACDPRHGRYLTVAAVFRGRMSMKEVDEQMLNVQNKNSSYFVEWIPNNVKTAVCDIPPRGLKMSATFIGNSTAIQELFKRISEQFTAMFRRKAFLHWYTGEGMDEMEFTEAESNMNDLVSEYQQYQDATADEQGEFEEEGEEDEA

Molecule | IC50 [1] [nM] | IC50 ([2]; Homo sapiens, OVCAR-3, 240 h) [nM] | IC50 [2] [nM]
CC1Cn2c(nc3c(NC(=O)c4ccc(NS(=O)(=O)CCO)cc4N4CCC5(CC4)CC5)ccc(F)c32)C(C)O1 (stereo not drawn) [Example 445, 2-(6-azaspiro[2.5]oct-6-yl)-N-(6-fluoro-1,3-dimethyl-3,4-dihydro-1H-benzo[4,5]imidazo[2,1-c][1,4]oxazin-9-yl)-4-{[(2-hydroxyethyl)sulfonamide]}benzamide] | ≤ 50 | – | ≤ 50
CCNC(=O)c1ccc(NC(=O)c2ccc(NS(=O)(=O)CCO)cc2N2CCC3(CC2)CC3)c2cc3n(c12)CC(C)(C)OC3 [Example 527] | 50 to 500 | ≤ 50 | –
N-(1-(cyclopropylmethyl)-1H-indol-4-yl)-4-methoxy-2-(6-azaspiro[2.5]octan-6-yl)benzamide [Example 127] | ≤ 50 | – | ≤ 50
CC1Cn2c(cc3c(NC(=O)c4ccc(NS(=O)(=O)CCO)cc4N4CCC5(CC4)CC5)cccc32)C(C)O1 (single isomer, unassigned) [Compound 312-P2B, N-(1,3-dimethyl-3,4-dihydro-1H-[1,4]oxazino[4,3-a]indol-9-yl)-4-((2-hydroxyethyl)sulfonamido)-2-(6-azaspiro[2.5]oct-6-yl)benzamide] | 50 to 500 | – | 50 to 500
CC1(C)Cn2c(cc3c(NC(=O)c4ccc(NS(=O)(=O)CCO)cc4N4CCC5(CC4)CC5)ccc(Cl)c32)CO1 [Example 521, 2-(6-azaspiro[2.5]oct-6-yl)-N-(6-chloro-3,3-dimethyl-3,4-dihydro-1H-[1,4]oxazino[4,3-a]indol-9-yl)-4-{[(2-hydroxyethyl)sulfonamide]}benzamide] | 50 to 500 | – | 50 to 500
COc1ccc(C(=O)Nc2ccc(NS(=O)(=O)CCO)cc2N2CCC(=C(F)F)CC2)c2cc3n(c12)CC(C)(C)OC3 [Example 566] | ≤ 50 | – | 50 to 500

Second part, led by results:

IC50 [1] [nM] | IC50 ([2]; Homo sapiens, OVCAR-3, 240 h) [nM] | Molecule | IC50 [2] [nM]
50 to 500 | – | CCS(=O)(=O)Nc1ccc(C(=O)Nc2cccc3c2cc2n3CCCC2O)c(N2CCC3(CC2)CC3)c1 (single isomer, unassigned) [Example 373-P2, 4-(ethylsulfonamido)-N-(9-hydroxy-6,7,8,9-tetrahydropyridino[1,2-a]indol-1-yl)-2-(6-azaspiro[2.5]oct-6-yl)benzamide] | 50 to 500
50 to 500 | ≤ 50 | N#Cc1ccc(NC(=O)c2ccc(NS(=O)(=O)CCO)cc2N2CCC3(CC2)CC3)c2cc3n(c12)CCC(F)(F)C3O (stereo not drawn) [Example 438, N-(4-cyano-8,8-difluoro-9-hydroxy-6,7,8,9-tetrahydropyridino[1,2-a]indol-1-yl)-4-((2-hydroxyethyl)sulfonamido)-2-(6-azaspiro[2.5]oct-6-yl)benzamide] | –
≤ 50 | – | O=C(Nc1cccc2c1cc1n2CCC(F)(F)C1)c1ccc(NS(=O)(=O)CCO)cc1N1CCC2(CC1)CC2 [Example 128, 2-(6-azaspiro[2.5]oct-6-yl)-N-(8,8-difluoro-6,7,8,9-tetrahydropyridino[1,2-a]indol-1-yl)-4-{[(2-hydroxyethyl)sulfonamide]}benzamide] | ≤ 50
50 to 500 | – | COC1c2cc3c(NC(=O)c4ccc(NS(=O)(=O)CCO)cc4N4CCC5(CC4)CC5)cccc3n2CCC1(F)F (single isomer, unassigned) [Example 340-P1] | 50 to 500
≤ 50 | – | CCS(=O)(=O)Nc1ccc(C(=O)Nc2cccc3c2cc2n3CCC(F)(F)C2O)c(N2CCC(=C(F)F)CC2)c1 (stereo not drawn) [Example 381, N-(8,8-difluoro-9-hydroxy-6,7,8,9-tetrahydropyridino[1,2-a]indol-1-yl)-2-(4-(difluoromethylene)piperidin-1-yl)-4-ethyl sulfonamidobenzamide] | ≤ 50
≤ 50 | – | O=C(Nc1cccc2c1CC1CCCN21)c1ccc(NS(=O)(=O)CCO)cc1N1CCC2(CC1)CC2 (stereo not drawn) [Example 130, 4-((2-hydroxyethyl)sulfonamide)-2-(6-azaspiro[2.5]octan-6-yl)-N-(2,3,9,9a-tetrahydro-1H-pyrrolo[1,2a]indol-8-yl)benzamide] | 50 to 500

Reference: patent US20260070887A1 (Shenzhen Zhongge Biological Technology Co., Ltd., priority 2022, published 2026)
